Data published in US7718651B2, “Inhibitors of FtsZ and uses thereof” (priority 2002, dated 2010).
Values after ≈ are worked out from the molar mass of the structure shown.

Test system: M. tuberculosis H37Rv
Experiment: microbe, parasite or virus in culture
Assay type: cell-based
Details: not given

Point of comparison: `CCOC(=O)Nc1cc(N[C@@H](C)C(=O)c2ccc(O)cc2)c([N+](=O)[O-])c(N)n1` [Compound A305], “% Inh” value −2%. Against it:
- CCOC(=O)Nc1cc2c(c(N)n1)N=C(c1ccccc1)[C@@H](C)N2 [Compound A98] — higher, 57%
- CCOC(=O)Nc1cc2c(c(N)n1)N=C(c1ccccc1)[C@H](C)N2 [Compound A129] — higher, 28%

Same assay, conditions: M. tuberculosis H37Rv, screen concentration 12.5 g/ml [sic], Table 8

Point of comparison: `CCOC(=O)Nc1cc2oc(=O)c(-c3ccccc3)nc2c(N)n1` [Compound A228], “% Inh” value 0%. Against it:
- CCOC(=O)Nc1cc(NC(C)CCCN(CC)CC)c2ncc(-c3ccc(Cl)cc3)nc2n1.Cl (centres unmarked) [Compound A5] — higher, 99%
- CCOC(=O)Nc1cc2c(c(N)n1)N=C(c1ccc(OCc3ccccc3)cc1)[C@@H](C)N2 [Compound A9] — higher, 99%
- O=C(Nc1cc(Cl)cc(NC(=O)Oc2ccccc2)n1)Oc1ccccc1 [Compound A36] — higher, 97%
- CCOC(=O)Nc1cc2nc(-c3ccccc3)c(-c3ccccc3)nc2c(NC(=O)OCC)n1 [Compound A51] — higher, 92%
- CCOC(=O)Nc1cc(NC(C)CCCN(CC)CC)c2nc(-c3ccc(Cl)cc3)c(-c3ccc(Cl)cc3)nc2n1 (centres unmarked) [Compound A6] — higher, 99%
- CCOC(=O)Nc1cc(NC/C(=N\O)C23CC4CC(CC(C4)C2)C3)c([N+](=O)[O-])c(N)n1 [Compound A47] — higher, 93%
- CCCCNC(=O)Oc1ccc(C2=Nc3c(cc(NC(=O)OCC)nc3N)N[C@@H]2C)cc1 [Compound A171] — higher, 7%
- COC(=O)Nc1cc(NC(C)/C(=N/O)c2ccccc2)c([N+](=O)[O-])c(N)n1 (centres unmarked) [Compound A176] — higher, 4%
- CCOC(=O)Nc1cc(NC(c2ccccc2)c2ccccc2)c([N+](=O)[O-])c(O)n1 [Compound A298] — the same, 0%
- CCOC(=O)Nc1cc2[nH]c(=O)c(-c3ccccc3)nc2c(NC(c2ccccc2)c2ccccc2)n1 [Compound A195] — the same, 0%
- CCOC(=O)Nc1cc(NCC(=O)c2ccc(C(F)(F)F)cc2)c([N+](=O)[O-])c(N)n1 [Compound A222] — the same, 0%
- CCOC(=O)Nc1cc(N)c2ncn(/N=C/c3ccccc3)c2n1 [Compound A81] — higher, 69%
- CCOC(=O)Nc1cc2c([nH]c(=S)n2N)c(N)n1 [Compound A200] — the same, 0%
- C=CCNc1cc(NC(=O)OCC)nc(NC(=O)OCC)c1[N+](=O)[O-] [Compound A281] — the same, 0%
- CCOC(=O)Nc1cc(NCC(O)CN(C)C)c([N+](=O)[O-])c(N)n1 (centres unmarked) [Compound A232] — the same, 0%
- CCOC(=O)Nc1cc(Cl)c2nn[nH]c2n1 [Compound A215] — the same, 0%
- CCOC(=O)Nc1ccc(N)c(N)n1 [Compound A236] — the same, 0%
- CCOC(=O)Nc1cc2ncc(CNc3ccc(C(=O)OCC)cc3)nc2c(N)n1 [Compound A289] — the same, 0%
- CCOC(=O)Nc1cc2c(c(N)n1)N=C(c1ccc(O)cc1)C(C)N2 (centres unmarked) [Compound A197] — the same, 0%
- CCOC(=O)Nc1cc(NC(c2ccccc2)c2ccccc2)c2nc(O)[nH]c2n1 [Compound A134] — higher, 23%
- CCOC(=O)Nc1ccccn1 [Compound A207] — the same, 0%
- COC(=O)Nc1cc(Cl)c([N+](=O)[O-])c(NC(=O)OC)n1 [Compound A165] — higher, 8%
- CCOC(=O)Nc1cc(NCC(O)CN(C)c2ccc(C)cc2)c([N+](=O)[O-])c(N)n1.Cl (centres unmarked) [Compound A62] — higher, 86%
- CCOC(=O)Nc1cc(NCCCCc2ccccc2)c([N+](=O)[O-])c(N)n1 [Compound A90] — higher, 62%
- CCOC(=O)Nc1cc(NC(C)CCCN(CC)CC)c([N+](=O)[O-])c(N)n1 (centres unmarked) [Compound A243] — the same, 0%
- CCCCC(O)C(C)Nc1cc(NC(=O)OCC)nc(N)c1N (centres unmarked) [Compound A181] — higher, 3%
- CCOC(=O)Nc1cc(NC(c2ccccc2)c2ccccc2)c([N+](=O)[O-])c(Cl)n1 [Compound A299] — the same, 0%
- CCOC(=O)Nc1cc(NCc2ccccc2)c2nc[nH]c2n1 [Compound A111] — higher, 43%
- CCCCC(Nc1cc(NC(=O)OCC)nc(N)c1[N+](=O)[O-])C(C)O (centres unmarked) [Compound A302] — lower, −1%
- CCOC(=O)Nc1cc(NCC(O)CN(C)c2ccc(Cl)cc2)c([N+](=O)[O-])c(N)n1 (centres unmarked) [Compound A122] — higher, 31%
- CCOC(=O)Nc1cc(N/N=C/c2ccccc2)c2[nH]c(=S)[nH]c2n1 [Compound A71] — higher, 75%
- CCOC(=O)Nc1cc(NCCc2ccc(S(=O)(=O)N(CC)CC)cc2)c2ncc(C)nc2n1 [Compound A255] — the same, 0%
- CCOC(=O)Nc1cc(N)c([N+](=O)[O-])c(N)n1 [Compound A162] — higher, 8%
- CCOC(=O)Nc1cc(SC(=N)N)c([N+](=O)[O-])c(N)n1 [Compound A84] — higher, 66%
- CCOC(=O)Nc1cc(Nc2ccc(Cl)cc2)c([N+](=O)[O-])c(N)n1 [Compound A256] — the same, 0%
- CCOC(=O)Nc1cc(NC(c2ccccc2)c2ccccc2)c(/N=C/c2ccc(Cl)cc2Cl)c(N)n1 [Compound A263] — the same, 0%
- CCOC(=O)Nc1cc2[nH]c(-c3cccc4ccccc34)nc2c(N(CCc2ccccc2)Cc2ccccc2)n1 [Compound A18] — higher, 98%
- CCOC(=O)Nc1cc(N/N=C/c2ccccc2)c2nc[nH]c2n1 [Compound A48] — higher, 92%
- CCOC(=O)Nc1cc(NC(C)C(O)c2ccc(O)cc2)c(N)c(N)n1 (centres unmarked) [Compound A179] — higher, 4%
- CCOC(=O)Nc1cc2c(c(NC(c3ccccc3)c3ccccc3)n1)N=C(c1ccccc1)C1NC=CN21 (centres unmarked) [Compound A311] — lower, −16%
- CCOC(=O)Nc1cc(NC(C)CCCN(CC)CC)c2ncc(C)nc2n1 (centres unmarked) [Compound A254] — the same, 0%
- CCOC(=O)Nc1cc(NC(C)C(O)Cc2ccccc2)c([N+](=O)[O-])c(N)n1 (centres unmarked) [Compound A104] — higher, 51%
- CCOC(=O)Nc1cc2c(c(N)n1)N=C(c1ccc(O)cc1)[C@H](C)N2 [Compound A164] — higher, 8%
- CCOC(=O)Nc1cc(NC(C)C(O)c2ccc(O)cc2)c([N+](=O)[O-])c(N)n1 (centres unmarked) [Compound A303] — lower, −2%
- CCOC(=O)Nc1cc(NC(c2ccccc2)c2ccccc2)c([N+](=O)[O-])c(NC(=O)OCC)n1 [Compound A175] — higher, 5%
- CCOC(=O)Nc1cc(NC(C)/C(=N/O)c2ccc(O)cc2)c([N+](=O)[O-])c(N)n1 (centres unmarked) [Compound A149] — higher, 14%
- CCOC(=O)Nc1cc(N(C)N)c([N+](=O)[O-])c(N)n1 [Compound A209] — the same, 0%
- CCOC(=O)Nc1cc(NC(c2ccccc2)c2ccccc2)c2nc(-c3cc(OC)c(OC)c(OC)c3)cnc2n1 [Compound A265] — the same, 0%
- CCOC(=O)Nc1cc2c(c(N)n1)N=C(c1cc(OC)c(OC)c(OC)c1)CO2 [Compound A227] — the same, 0%
- CCOC(=O)Nc1cc(Nc2ccc(Cl)cc2)c(N)c(N)n1 [Compound A92] — higher, 61%
- CCOC(=O)Nc1cc(NC/C(CCc2ccccc2)=N\O)c([N+](=O)[O-])c(N)n1 [Compound A136] — higher, 21%
- CCOC(=O)N(Cc1ccc(S(N)(=O)=O)cc1)c1cc(Cl)c([N+](=O)[O-])c(N)n1 [Compound A294] — the same, 0%
- CCOC(=O)Nc1cc2[nH]c(-c3ccc(OC)cc3)nc2c(N)n1 [Compound A114] — higher, 41%
- CCOC(=O)Nc1cc2c(c(N)n1)[N+](=O)OC(c1ccccc1)N[N-]2 (centres unmarked) [Compound A214] — the same, 0%
- CCOC(=O)Nc1cc2[nH]c(-c3ccc(OC)cc3)nc2c(N(CCc2ccccc2)Cc2ccccc2)n1 [Compound A16] — higher, 98%
- CCCCNC(=O)Oc1ccc(C2=Nc3c(cc(NC(=O)OCC)nc3N)N[C@H]2C)cc1 [Compound A160] — higher, 10%
- CCOC(=O)Nc1cc(NC(C)C(=O)c2ccccc2)c([N+](=O)[O-])cn1 (centres unmarked) [Compound A314] — lower, −36%
- CCOC(=O)Nc1cc(NCCc2ccc(S(N)(=O)=O)cc2)c2ncc(C)nc2n1 [Compound A251] — the same, 0%
- CCOC(=O)Nc1cc(NC(CC)C(=O)c2ccccc2)c([N+](=O)[O-])c(N)n1 (centres unmarked) [Compound A307] — lower, −8%
- CCOC(=O)Nc1cc(NCC(O)CN(C)c2ccccc2)c(N)c(NC(=O)OCC)n1 (centres unmarked) [Compound A169] — higher, 7%
- CCOC(=O)Nc1cc2c(ncn2/N=C/c2ccc(OC)cc2)c(N)n1 [Compound A242] — the same, 0%
- CCOC(=O)Nc1cc(NNC=O)c([N+](=O)[O-])c(N)n1 [Compound A205] — the same, 0%
- CCOC(=O)Nc1cc(NC(C)CCCN(CC)CC)c2nccnc2n1 (centres unmarked) [Compound A253] — the same, 0%
- CCOC(=O)Nc1cc2[nH]c(-c3ccc([N+](=O)[O-])cc3)nc2c(N(CCc2ccccc2)Cc2ccccc2)n1 [Compound A14] — higher, 98%
- CCOC(=O)Nc1cc2nc(-c3ccccc3)c(-c3ccccc3)nc2c(N)n1 [Compound A49] — higher, 92%

Same assay, conditions: Mycobacterium tuberculosis; M. tuberculosis H37Rv; at 12.5% μg/ml (so in the source); read-out: Primary Screen PI (% inhibition of growth)

Point of comparison: `CCOC(=O)Nc1cc2nc(-c3ccccc3)c(-c3ccccc3)nc2c(OCC)n1` [Compound 3491-23, (5-Ethoxy-2,3-diphenyl-pyrido[3,4-b]pyrazin-7-yl)-carbamic acid ethyl ester], inhibition of growth at 12.5 µg/mL 95%. Against it:
- CCOC(=O)Nc1cc2c(c(N)n1)N=C(c1ccccc1)C(c1ccccc1)O2 (centres unmarked) [CAO-040, (5-Amino-2,3-diphenyl-2H-pyrido-[4,3b][1,4]oxazin-7-yl)-carbamic acid ethyl ester] — lower, 90%
- CCN(CC)S(=O)(=O)c1ccc(CNc2cc(N)nc3nc(-c4ccccc4)c(-c4ccccc4)nc23)cc1 [Compound 4427-143, 4-[(6-Amino-2,3-diphenyl-pyrdo[2,3b]pyrazin-8-yl-amino)-methyl]-N,N-diethyl-benzenesulfonamide] — higher, 99%

Same assay, conditions: in words

With `CCOC(=O)Nc1cc2c(c(N)n1)N=C(c1ccccc1)C(c1ccccc1)O2` (centres unmarked) [CAO-040, (5-Amino-2,3-diphenyl-2H-pyrido-[4,3b][1,4]oxazin-7-yl)-carbamic acid ethyl ester] the “activity against M. tuberculosis H37Rv in the primary screen” value (“activity against M. tuberculosis H37Rv” below) was “demonstrated activity”.
In the case of `CCN(CC)S(=O)(=O)c1ccc(CNc2cc(N)nc3nc(-c4ccccc4)c(-c4ccccc4)nc23)cc1` [Compound 4427-143, 4-[(6-Amino-2,3-diphenyl-pyrdo[2,3b]pyrazin-8-yl-amino)-methyl]-N,N-diethyl-benzenesulfonamide], the “activity against M. tuberculosis H37Rv” value is reported as “demonstrated activity”.
In the case of `CCOC(=O)Nc1cc2nc(-c3ccccc3)c(-c3ccccc3)nc2c(OCC)n1` [Compound 3491-23, (5-Ethoxy-2,3-diphenyl-pyrido[3,4-b]pyrazin-7-yl)-carbamic acid ethyl ester], the “activity against M. tuberculosis H37Rv” value is reported as “demonstrated activity”.

Test system: M. tuberculosis H37Rv
Experiment: MIC99 determination, BACTEC 460 radiometric system
Assay type: cell-based
Details: Mycobacterium tuberculosis, H37RV

In the case of `O=C(Nc1cc(Cl)cc(NC(=O)Oc2ccccc2)n1)Oc1ccccc1` [Compound A36], the MIC is reported as 12.5 µg/mL (≈ 32.6 µM).

Same assay, conditions: Mycobacterium tuberculosis; M. tuberculosis H37Rv, Table 3; read-out: Screen 2 MIC99

Point of comparison: `CCN(CC)S(=O)(=O)c1ccc(CNc2cc(N)nc3nc(-c4ccccc4)c(-c4ccccc4)nc23)cc1` [Compound 4427-143, 4-[(6-Amino-2,3-diphenyl-pyrdo[2,3b]pyrazin-8-yl-amino)-methyl]-N,N-diethyl-benzenesulfonamide], MIC99 3.13 µg/mL (≈ 5.81 µM). Against it:
- CCOC(=O)Nc1cc2c(c(N)n1)N=C(c1ccccc1)C(c1ccccc1)O2 (centres unmarked) [CAO-040, (5-Amino-2,3-diphenyl-2H-pyrido-[4,3b][1,4]oxazin-7-yl)-carbamic acid ethyl ester] — 2-fold higher, 6.25 µg/mL (≈ 16.1 µM)

Same assay, conditions: Mycobacterium tuberculosis; M. tuberculosis H37Rv, Table 8; read-out: MIC

Point of comparison: `CCOC(=O)Nc1cc2c(c(N)n1)N=C(c1ccc(OCc3ccccc3)cc1)[C@@H](C)N2` [Compound A9], MIC 6.25 µg/mL (≈ 14.5 µM). Against it:
- CCOC(=O)Nc1cc(NC(C)CCCN(CC)CC)c2ncc(-c3ccc(Cl)cc3)nc2n1.Cl (centres unmarked) [Compound A5] — 4-fold lower, 1.56 µg/mL
- CCOC(=O)Nc1cc2nc(-c3ccccc3)c(-c3ccccc3)nc2c(NC(=O)OCC)n1 [Compound A51] — higher, > 6.25 µg/mL
- CCOC(=O)Nc1cc(NC(C)CCCN(CC)CC)c2nc(-c3ccc(Cl)cc3)c(-c3ccc(Cl)cc3)nc2n1 (centres unmarked) [Compound A6] — 4-fold lower, 1.56 µg/mL (≈ 2.62 µM)
- CCOC(=O)Nc1cc(NC/C(=N\O)C23CC4CC(CC(C4)C2)C3)c([N+](=O)[O-])c(N)n1 [Compound A47] — higher, > 12.5 µg/mL
